Measurements as given in patent US7544707B2, “Bicyclic derivatives as PPAR modulators” (Eli Lilly and Company, priority 2003, dated 2009).

melting point	SMILES
141 to 143 °C	Cc1cc(SCCc2cccc3cn(-c4ccc(C(F)(F)F)cc4)nc23)ccc1OC(C)(C)C(=O)O [Example 49, 2-Methyl-2-(2-methyl-4-{2-[2-(4-trifluoromethylphenyl)-2H-indazol-7-yl]ethylsulfanyl}phenoxy)propionic Acid]
112 to 114 °C	CC(C)(Oc1ccc(SCCc2cccc3cn(-c4ccc(C(F)(F)F)cc4)nc23)cc1)C(=O)O [Example 50, 2-Methyl-2-(4-{2-[2-(4-trifluoromethylphenyl)-2H-indazol-7-yl]ethylsulfanyl}phenoxy)propionic Acid]
119 to 121 °C	Cc1cc(OCc2ccc3cn(-c4ccc(C(F)(F)F)cc4)nc3c2)ccc1OC(C)(C)C(=O)O [Example 51, 2-Methyl-2-{2-methyl-4-[2-(4-trifluoromethylphenyl)-2H-indazol-6-ylmethoxy]phenoxy}propionic Acid]
199 to 201 °C	CC(C)(Oc1ccc(OCc2ccc3cn(-c4ccc(C(F)(F)F)cc4)nc3c2)cc1)C(=O)O [Example 52, 2-Methyl-2-{4-[2-(4-trifluoromethylphenyl)-2H-indazol-6-ylmethoxy]phenoxy}propionic Acid]
116 to 118 °C	Cc1cc(SCc2ccc3cn(-c4ccc(C(F)(F)F)cc4)nc3c2)ccc1OC(C)(C)C(=O)O [Example 53, 2-Methyl-2-{2-methyl-4-[2-(4-trifluoromethylphenyl)-2H-indazol-6-ylmethylsulfanyl]phenoxy}propionic Acid]
176 to 178 °C	CC(C)(Oc1ccc(SCc2ccc3cn(-c4ccc(C(F)(F)F)cc4)nc3c2)cc1)C(=O)O [Example 54, 2-Methyl-2-{4-[2-(4-trifluoromethylphenyl)-2H-indazol-6-ylmethylsulfanyl]phenoxy}propionic Acid]
133 to 135 °C	CC(C)(Sc1ccc(OCc2ccc3cn(-c4ccc(C(F)(F)F)cc4)nc3c2)cc1)C(=O)O [Example 55, 2-Methyl-2-{4-[2-(4-trifluoromethylphenyl)-2H-indazol-6-ylmethoxy]phenylsulfanyl}propionic Acid]
129 to 131 °C	CC(C)(Oc1ccc(COCc2ccc3cn(-c4ccc(C(F)(F)F)cc4)nc3c2)cc1)C(=O)O [Example 56, 2-Methyl-2-{4-[2-(4-trifluoromethylphenyl)-2H-indazol-6-ylmethoxymethyl]phenoxy}propionic Acid]
164 to 166 °C	Cc1cc(OCc2ccc3nn(-c4ccc(C(F)(F)F)cc4)cc3c2)ccc1OC(C)(C)C(=O)O [Example 61, 2-Methyl-2-{2-methyl-4-[2-(4-trifluoromethylphenyl)-2H-indazol-5-ylmethoxy]phenoxy}propionic Acid]
192 to 194 °C	CC(C)(Sc1ccc(OCc2ccc3nn(-c4ccc(C(F)(F)F)cc4)cc3c2)cc1)C(=O)O [Example 62, 2-Methyl-2-{4-[2-(4-trifluoromethylphenyl)-2H-indazol-5-ylmethoxy]phenylsulfanyl}propionic Acid]
159 to 161 °C	CC(C)(Oc1ccc(SCc2ccc3nn(-c4ccc(C(F)(F)F)cc4)cc3c2)cc1)C(=O)O [Example 63, 2-Methyl-2-{4-[2-(4-trifluoromethylphenyl)-2H-indazol-5-ylmethylsulfanyl]phenoxy}propionic Acid]
143 to 145 °C	Cc1cc(SCc2ccc3nn(-c4ccc(C(F)(F)F)cc4)cc3c2)ccc1OC(C)(C)C(=O)O [Example 64, 2-Methyl-2-{2-methyl-4-[2-(4-trifluoromethylphenyl)-2H-indazol-5-ylmethylsulfanyl]phenoxy}propionic Acid]
203 to 205 °C	CC(C)(Oc1ccc(OCc2ccc3nn(-c4ccc(C(F)(F)F)cc4)cc3c2)cc1)C(=O)O [Example 65, 2-Methyl-2-{4-[2-(4-trifluoromethylphenyl)-2H-indazol-5-ylmethoxy]phenoxy}propionic Acid]
